# Measured values: patent US7271148B2, “Inhibition of cellular proteases” (The Board of Regents of The University of Texas System, priority 1999, dated 2007)
# System: p21^cip1 abundance in HCMV-infected LU cells
# Test: Western blot of p21cip1 abundance in HCMV-infected, density-arrested LU cells
# Format: cell-based, human
# Procedure: Cell culture and growth arrest. LU cells (3) were propagated in Eagle's minimum essential medium containing 10% fetal bovine serum and penicillin (100 units/ml)/streptomycin (100 μg/ml) in a 5% CO2 in air atmosphere. The cells were density-arrested as described previously in detail (18).
# Virus stocks and productive infection. The AD169 strain of HCMV was propagated in LU cells as previously described in detail (6). The infectivity of virus stocks was determined by plaque assay (3). Virus stocks typically had infectivities between 8.0×10^6 and 4.0×10^7 plaque-forming units (PFU)/milliliter. LU cells were infected with HCMV as described in detail by Bresnahan et al. (18). Virus stocks and cell cultures were routinely examined for mycoplasma.
# Western blots. Polyclonal or monoclonal antibody for p21^cip1 was obtained from Santa Cruz Biotechnology, Inc. (Santa Cruz, Calif.). Monoclonal antibodies against m-calpain, μ-calpain or calpastatin were generously provided by Dr. R. I. Mellgren (see also 75). Cells were harvested as described previously (18) by dislodging the cells with a cell lifter in phosphate buffered saline. The cells were collected by sedimentation and lysed in NP-40 lysis buffer [50 mM Tris, pH 7.4, 50 mM NaCl, 0.5% NP-40, and 1 mM NaVO3, 50 mM NaF, 1mM phenylmethylsulfonyl fluoride (PMSF), 1 mM dithiothreitol (DTT), 25 μg/ml trypsin inhibitor, 25 μg/ml aprotinin, 1 mM benzamide, and 25 μg/ml pepstatin A added just before use]. Cellular debris was removed by sedimentation and the supernatant fluids were reserved. The protein concentration was determined by the BCA protein assay (Pierce, Rockford, Ill.). Whole cell extracts (40 μg/lane) were fractionated by SDS-polyacrylamide gel electrophoresis (PAGE), and the polypeptides were transferred to nitrocellulose membranes (Bio-Rad Laboratories, Hercules, Calif.) as described previously (18). Antigen-antibody reactions were detected with the enhanced chemiluminescent assay (Amersham Pharmacia Biotech) following the manufacturer's recommendations. […]
# FIGS. 9 and 10. The concentration effect of E64d on p21^cip1 abundance in HCMV-infected cells. 9: LU cells were density arrested as described in Materials and Methods. The cells were HCMV (5 PFU/cell) or mock infected, and at 48 hr PI were treated with selected concentrations of E64d. Whole cell lysates were prepared 6 hr later, and 40 μg of protein from each lysate was resolved by SDS-PAGE. The proteins were transferred to nitrocellulose and probed with antibodies to p21^cip1. Mock: mock-infected cells in the absence of drug. Control, untreated HCMV-infected cells. 0, DMSO solvent control, consisting of HCMV-infected cells treated with the same concentration of DMSO solvent (0.1%) contained in the highest concentration of E64d. 10: Represents the abundance of p21^cip1 determined by densitometric analysis of the data in FIG. 9.
# FIGS. 11 and 12. The concentration effect of Z-Leu-Leu-H on p21^cip1 abundance in HCMV-infected cells. 11. LU cells were density arrested as described in Materials and Methods. The cells were HCMV (5 PFU/cell) infected, and at 48 hr PI were treated with selected concentrations of Z-Leu-Leu-H. Whole cell lysates were prepared 6 hr later, and 40 μg of protein from each lysate was resolved by SDS-PAGE. The proteins were transferred to nitrocellulose and probed with antibodies to p21^cip1. Mock, Control, and 0 are defined as in the legend to FIG. 9. 12 : Represents the abundance of p21^cip1 determined by densitometric analysis of the data in FIG. 11.
# FIGS. 13 and 14. The time course for the effect of E64d on p21^cip1 abundance in HCMV-infected, density-arrested cells. 13: LU cells were density arrested, as described in Materials and Methods. The cells were HCMV (5 PFU/cell) or mock infected, and at the intervals indicated in the Fig., beginning 1 hr after infection, subsets of the cells were treated with E64d (100 μM). […]
compound,measurement,setting,value
"CC(C)C[C@H](NC(=O)[C@H]1O[C@@H]1C(=O)O)C(=O)NCCCCN=C(N)N (relative stereo) [E64d, trans-epoxysuccinyl-L-leucylamido (4-guanidino)-butane]",p21^cip1 abundance as % of that measured in mock-infected cells,"100 μM, HCMV-infected cells treated at 48 hr PI, lysates 6 hr later",about 85%
same,increase in the abundance of p21^cip1,"E64d 100 μM from 48 hr PI, HCMV-infected cells, after 12 hr of treatment",4 fold
same,maximum level of p21^cip1 relative to that observed at 0 hr,"E64d 100 μM from 48 hr PI, HCMV-infected cells, up to 24 hr treatment",about 84%
same,p21^cip1 levels versus absence of inhibitor over time course of infection (in words),"E64d 100 μM up to 12 hr before harvest, HCMV-infected cells, 3 hr to 96 hr PI",consistently greater
same,"protection of p21^cip1, concentration effect (in words)","HCMV-infected cells treated at 48 hr PI for 6 hr, selected concentrations up to 100 μM",directly dependent on the concentration
